Laboratory results: ChEMBL document CHEMBL1145519, “Exploitation of structural and regulatory diversity in glutamate racemases” (Nature, 2007)
The source made the active and inactive calls. No cut-off for these calls is given here.

How the values were obtained:
Helicobacter pylori = assay: Increase in UDP-MurNAc-Ala level in Helicobacter pylori; type: functional, organism-based

Description for Enterococcus faecium: Activity of Enterococcus faecium MurI
Description for Escherichia coli: Activity of Escherichia coli MurI
Description for Staphylococcus aureus: Activity of Staphylococcus aureus MurI

Compound	Km (Enterococcus faecium) [µM]	Km (Escherichia coli) [µM]	kcat (Escherichia coli) [s⁻¹]	Km (Staphylococcus aureus) [µM]	kcat (Staphylococcus aureus) [s⁻¹]	Activity (Helicobacter pylori)
N[C@H](CCC(=O)O)C(=O)O	240	2100	43.3	140	0.567	–
N[C@@H](CCC(=O)O)C(=O)O	1100	1200	12.2	4600	8.5	–
CC(C)Cn1c(=O)n(C)c(=O)c2c(-c3ccncc3)n(Cc3cccc4ccccc34)nc21	–	–	–	–	–	Active
